Source: patent publication US8426151B2, “Systems and methods for the detection of biomarkers” (Companion Diagnostics Inc., priority 2010, dated 2013)
Values joined by “and” are separate entries in the source; they are usually repeats but may differ in a detail not shown here. Equal entries are not always repeated.

Key:
peroxidase = assay: Peroxidase assay in saliva (Amplex Red); format: biochemical; conditions: 500 ppm, 30 minutes, FIGS. 26-29
Experimental: To determine the effect of various GRAS compounds as inhibitors of peroxidase activity, a standard assay using Amplex® Red (Life Technologies), which releases a fluorescent oxidation product.
The test compounds, such as GRAS materials or cocktails of same, were prepared at a concentration of 500 ppm in distilled water. For the assay, 50 μl samples of test compounds were mixed with 20-30 μl of saliva (either “pooled” or “unpooled”) prior to the addition of Amplex® Red. Following the mixture of the test compounds with saliva, 50 μl of Amplex® Red/HRP working solution (See Protocol for Invitrogen Assay #A22188, which is incorporated herein in its entirety), which has a concentration of 100 μM of Amplex® Red, is added to the test compound/saliva mixture. […] Reactions were allowed to run for 30 minutes during these assays.

α-amylase = biological target: T1, α-amylase (Homo sapiens, UniProt P0DUB6); assay: α-Amylase inhibition saliva screening (2-chloro-p-nitrophenol-maltotriose substrate, 405 nm); format: biochemical; conditions: for absorbance at 405 nm, single readings: 37° C., beside 100% Saliva Control; for Ave: mean of four readings at 405 nm
T1 sequence (P0DUB6 16-511): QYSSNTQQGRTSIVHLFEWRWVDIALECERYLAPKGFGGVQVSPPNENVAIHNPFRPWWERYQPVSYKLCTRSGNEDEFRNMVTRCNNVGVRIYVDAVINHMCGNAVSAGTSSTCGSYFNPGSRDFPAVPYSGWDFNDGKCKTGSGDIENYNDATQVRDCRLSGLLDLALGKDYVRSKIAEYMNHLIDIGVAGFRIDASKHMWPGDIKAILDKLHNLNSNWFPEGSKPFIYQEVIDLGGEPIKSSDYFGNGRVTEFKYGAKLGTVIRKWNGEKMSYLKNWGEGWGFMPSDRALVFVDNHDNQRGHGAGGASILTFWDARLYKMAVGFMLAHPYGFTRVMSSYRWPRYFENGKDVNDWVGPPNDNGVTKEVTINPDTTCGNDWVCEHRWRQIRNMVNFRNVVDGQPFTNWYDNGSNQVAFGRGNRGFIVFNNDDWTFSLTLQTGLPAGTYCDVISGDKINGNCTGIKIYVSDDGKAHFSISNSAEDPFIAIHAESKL
Description: Enzymatic activity of α-amylase on the substrate yields 2-chloro-p-nitrophenol, which can be measured spectrophotometrically at 405 nm. The amount of α-amylase activity present in the experimental sample is directly proportional to the increase in absorbance at 405 nm.

Question: For “Aluminum potassium sulfate dodecahydrate [CDI-42]”, which peroxidase inhibition (peroxidase) is on record?
Answer: significant peroxidase inhibition capabilities

Question: What about the “absorbance at 405 nm, single readings” value (α-amylase; 0 min) of the same molecule?
Answer: 0.80 and 0.90 and 0.84

Question: And the Ave (α-amylase; 0 min)?
Answer: 0.92

Question: And the “absorbance at 405 nm, single readings” value (α-amylase; 5 min)?
Answer: 1.80

Question: What about the Ave (α-amylase; 5 min) of the same molecule?
Answer: 1.85

Question: What about the Ave (α-amylase; 15 min) of the same molecule?
Answer: 2.29

Question: How did the “absorbance at 405 nm, single readings” value (α-amylase; 0 min, sulfate hydrate) turn out when Aluminum sulfate hydrate [CDI-34] was run?
Answer: 0.40 and 0.36 and 0.45

Question: What about the Ave (α-amylase; 0 min) of the same molecule?
Answer: 0.40

Question: And the “absorbance at 405 nm, single readings” value (α-amylase; 5 min, sulfate hydrate)?
Answer: 0.49 and 0.50 and 0.52

Question: And the Ave (α-amylase; 5 min)?
Answer: 0.50

Question: And the “absorbance at 405 nm, single readings” value (α-amylase; 15 min, sulfate hydrate)?
Answer: 0.53 and 0.61 and 0.54 and 0.56

Question: And the Ave (α-amylase; 15 min)?
Answer: 0.56

Question: How did the peroxidase inhibition (peroxidase) turn out when `Cn1c(=O)c2c(ncn2C)n(C)c1=O` [CDI #33, Caffeine] was run?
Answer: significant peroxidase inhibition capabilities

Question: With `COc1ccc(O)c(C(C)(C)C)c1` [CDI-039, 3-tert--butyl-hydroxyanisole] as the molecule, how does the peroxidase inhibition (peroxidase) read?
Answer: significant peroxidase inhibition capabilities
